Reference: US20100286061A1, “PLASMIN-INHIBITORY THERAPIES” (priority 2004, published 2010)
Entries after “also recorded” stand apart in the source; their conditions may differ. Where two headings read alike, the source gives them in different places. No end group written: not given here.

What was measured:
[1] = global coagulation screening tests (haemostasis in vitro)
SW480 cells = assay: Soft agar colony formation; format: cell-based, human; details: 0.1 to 50 μM
Protocol: We also evaluated DX-1000 in an assay to measure the sensitivity of human tumors to drugs before progressing to in vivo studies. SW-480 cells are grown in vitro in soft agar, reducing cell movement and allowing individual cells to develop into cell clones that are identified as single colonies. 3,000 SW480 cells were seeded into each well of six well plates. Each treatment was run in triplicate. Five 4× images were taken from each well for quantification using the […]® software.

[2] = tested on: Mouse endothelial cells (EC) (LEII cell line); assay: Tube formation assay, mouse endothelial cells (LEII) on GFR-Matrigel; format: cell-based; details: for IC50: total tube length, 5 hours
Protocol: (§1) Tube formation assay: HUVECs were cultured on gelatin-coated culture dishes in RPMI medium. The cells (passage 2) were seeded at 8e4/well of a 96-well plate on collagen type I (1.5 mg/ml, SERVA) in their culture medium (EGM-2 complete medium supplemented with 10% FCS) and allowed to spread for 1 hour. The culture medium was then discarded and the cells were covered with a new layer of collagen type I (1.5 mg/ml, new preparation). […] Mouse endothelial cells (EC) (LEII cell line) were seeded at 2e4/well of a 96-well plate on GFR-Matrigel (BD) in their culture medium (IMDM supplemented with 10% FCS) in presence of a dose range of DX-1000 and incubated at 37° C./5% CO2 for 5 hours. Endothelial tube formation was assessed with an inverted photomicroscope (Analis). Microphotographs of the center of each well at low power (40×) were taken with a NIKON camera with the aid of imaging-capture software (NIKON). Tube formation in the microphotographs was quantitatively analyzed (total tube length) with METAVUE™ software (Universal Imaging Corporation). Tube formation by untreated HUVECs in full endothelial cell growth medium was used as a control. IC50 values were determined with SIGMAPLOT™.

LNCaP cells = assay: Chemo-invasion through Matrigel, LNCaP cells (DHT-stimulated); format: cell-based
Protocol: (§2) Cell culture of tumor cell lines: HT-1080 (fibrosarcoma), and LNCaP (androgen-dependent prostate cancer) cell lines were grown to 80% confluence in Dulbecco's modified Eagle medium (DMEM) supplemented with 10% FCS, glutamine ([…]), sodium bicarbonate (2.1 g/l), ascorbic acid ([…]) and penicillin-streptomycin (P/S) (100 U/ml). LNCaP cells were stimulated with di-hydro-testosterone (DHT, 10 nM). Non-adherent HL-60 (acute myeloid leukemia) cell line was grown in RPMI medium supplemented with 20% FCS, glutamine 4 mM, sodium bicarbonate (1.5 g/l) and P/S (100 U/ml). Cultures were maintained at a cell concentration between 1e5 and 1e6/ml.
(§3) Chemo-invasion: HT-1080 and LNCaP cells were seeded at 10^6/well in 24-well cluster plates and incubated overnight. They were then incubated in the presence of a dose range of DX-1000 for 24 hours. […] Chemo-invasion was assessed using Transwell cell culture chamber inserts (Becton Dickinson) with Growth Factor Reduced-[…]® (GFR-[…]®) coated filters. After trypsinization, cells were seeded in the upper part of the invasion chamber (1e4/insert). RPMI medium supplemented with 5% FCS and 1% BSA and NIH3T3 CM used as chemoattractants for HT-1080 and LNCaP cells, respectively. After 24 hours of incubation at 37° C., filters were removed from the chambers, stained, and the % of invading cells was evaluated. Each condition was performed in duplicate.

Clauss fibrinogen assay = details: concentrations>5.6 μM
[3] = tested on: plasmin-mediated pro-MMP-9 activation in HL-60 cells; assay: Gelatin zymography of HL-60 conditioned media; format: cell-based; details: for inhibition of plasmin-mediated pro-MMP-9 activation: HL-60 cells, gelatin zymography, 1 μM, 48 hours
Protocol: as §2
Gelatin zymography: HL-60 cells were cultured in serum-free medium (Ultraculture medium). Different conditions were considered: with and w/o DX-1000 at 1 μM; with or without pro-MMP-9 activators (plasmin+pro-MMP-3). Cells were cultured at 37° C./5% CO2 for 48 hours. Aliquots of conditioned media (CM) were then collected, clarified by centrifugation, mixed with electrophoresis sample buffer without reducing agent, and applied to 10% acrylamide gels containing gelatin (1 mg/ml). Active recombinant gelatinases served as standard. Samples were resolved at 20 mA, washed in 2% Triton X-100 for 1 hour and incubated at 37° C. for 16 hours in activation buffer containing 50 mM Tris-HCl, pH 7.4, 0.2 M NaCl, 5 mM CaCl2. After staining with Coomassie brilliant blue R-250, the gelatinolytic activities were detected as clear bands against the blue background.

HT-1080 cells [4] = assay: Cell migration: scraping assay and Boyden chamber assay without Matrigel; format: cell-based; details: 1-10 μM in scraping assay
Protocol: Scraping assay: HT-1080 cells were seeded at 2e6/well in 6-well plates in complete medium. […] Cell layers were then scraped with a plastic tip.
The effect of DX-1000 on cell migration was evaluated using two different assays, the scraping assay and a Boyden chamber assay without Matrigel.

[5] = tested on: plasmin-activated MMP-9 activity; assay: BIOTRAK assay kit, MMP-9 activity in HL60 conditioned media; format: cell-based; details: 1 μM, HL60, two days of culture
Protocol: In addition to gelatin zymography, we evaluated the plasmin inhibitors using the BIOTRAK® assay kit. HL60 were seeded at 4×10^5 cells/well (24 wells plate) in a serum free medium (UltraCulture medium). The day after, different conditions were evaluated: samples with and without activators of pro-MMP9 (Plasmin and pro-MMP-3) and samples with and without DX-1000 and 4-PEG-DX-1000 (1 μM). After two days of culture, conditioned media were collected an activity of MMP-9 was assessed using the BIOTRAK® assay kit. Assay time was approximately one hour under standard conditions. At a 1 μM concentration, DX-1000 and 4-PEG DX-1000 effected an approximately 68-70% reduction in plasmin-activated MMP-9 activity.

human plasmin = human plasmin (Homo sapiens, UniProt P00747); assay: plasmin inhibition (Ki); format: biochemical
[6] = Pharmacokinetics of iodinated protein in normal mice; format: in vivo; details: tail vein injection
Protocol: (§4) Labeling: we used […] protein and the Iodogen (Pierce) method, ˜1.7 mCi. Purification: we used D-salt polyacrylamide column and collected fractions, with total recovery ˜90%. We pooled high yield fractions for injections. Mice: we injected […] via tail vein. One time point/animal; four animals/time point. We used the following time points: no PEG at 0, 7, 15, 30, and 90 min. PEG at 0, 7, 15, 30, and 90 min, 4, 8, 16, and 24 hrs. We analyzed total plasma counts, used HPLC on Superose 12 (stability), and analyzed biodistribution. Rabbits: we injected 80 mg/animal via left ear vein. Blood was drawn from the right ear at following time points: no PEG at 0, 7, 15, 30, 90 min, 4, 8, 16, 24, 48, 72, and 96 hrs. PEG at 0, 7, 15, 30, 90 min, 4, 8, 16, 24, 48, 72, 96, 120, 144, 168, and 192 hrs. We preformed the following analyses: total plasma counts and HPLC on Superose 12 (stability) at 48, 72, 96, 120, 144, 168, and 192 hrs.

[7] = Pharmacokinetics of iodinated protein in rabbits; format: in vivo; details: rabbit, ear vein injection
Protocol: as §4

platelet function = platelet function screening test
clot lysis = assay: clot lysis
HUVECs = assay: Tube formation assay, HUVECs on collagen type I; format: cell-based, human; details: for IC50: total tube length, 16-18 hours, read-out: IC50 tube formation, HUVEC
Protocol: as §1

endothelial cells = assay: in vitro endothelial tubulogenesis (tube formation) assay, cell type not specified; format: cell-based; details: for inhibition of tubulogenesis / angiogenesis in vitro: qualitative
Protocol: as §1
DX-1000 was also tested for its activity in an in vitro endothelial tubulogenesis assay (“tube formation assay” described in Methods.). […]

fibrinolysis = assay: Thrombelastography (TEG); details: 280-560 nM DX-1000
HL-60 cells = assay: Apoptosis (caspase 3/7 activity, FACS), HL-60; format: cell-based; details: also FACS assay
Protocol: (§5) Apoptosis was evaluated using an assay for detecting caspase 3/7 activity using caspase 3/7 substrate. Apoptosis was also not detected using a FACS assay.

prothrombin time (PT) = details: concentrations>5.6 μM
SW-480 cells = assay: Apoptosis (caspase 3/7 activity, FACS), SW-480; format: cell-based, human; details: also FACS assay
Protocol: as §5

[8] = activated partial thromboplastin time (APTT)
HT-1080 cells [9] = assay: Chemo-invasion through Matrigel, HT-1080 cells; format: cell-based
Protocol: as §2, §3

[10] = Allometric extrapolation of stability to humans; details: allometric extrapolations from mouse and rabbit
From the text: By allometric extrapolations, we should expect a stability of 9 days in humans.

[11] = DX-1000 1-10 nM, Matrigel or collagen type I

Chain of human plasmin (P00747 581-810 limits assumed): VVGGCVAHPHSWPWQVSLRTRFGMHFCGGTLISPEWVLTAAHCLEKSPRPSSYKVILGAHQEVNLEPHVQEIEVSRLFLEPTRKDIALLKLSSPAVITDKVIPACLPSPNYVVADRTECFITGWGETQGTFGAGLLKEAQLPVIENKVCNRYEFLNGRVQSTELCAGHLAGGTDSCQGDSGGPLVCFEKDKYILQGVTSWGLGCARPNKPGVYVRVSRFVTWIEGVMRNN
Chain of human plasmin (P00747 97-580 partner limits assumed): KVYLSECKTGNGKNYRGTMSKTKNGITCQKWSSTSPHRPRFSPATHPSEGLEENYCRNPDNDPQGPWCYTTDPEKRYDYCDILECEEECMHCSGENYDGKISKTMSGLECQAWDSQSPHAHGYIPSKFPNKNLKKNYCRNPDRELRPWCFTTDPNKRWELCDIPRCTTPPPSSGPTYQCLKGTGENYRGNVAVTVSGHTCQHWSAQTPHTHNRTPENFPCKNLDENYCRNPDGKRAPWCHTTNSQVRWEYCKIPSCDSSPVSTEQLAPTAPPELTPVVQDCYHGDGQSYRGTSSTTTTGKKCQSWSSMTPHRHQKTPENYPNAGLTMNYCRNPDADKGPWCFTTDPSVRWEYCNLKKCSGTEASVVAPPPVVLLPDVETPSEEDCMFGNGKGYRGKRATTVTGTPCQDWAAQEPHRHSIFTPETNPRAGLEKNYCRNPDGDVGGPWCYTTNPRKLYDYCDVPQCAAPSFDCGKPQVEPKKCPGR

Question: What does the source list for “DX-1000: Kunitz domain that inhibits human plasmin; framework region of human LACI; SEQ ID NO:22 or 23 (MHSFCAFKAETGPCRARFDRWFFNIFTRQCEEFIYGGCEGNQNRFESLEECKKMCTRD)”?
Answer: effects in global coagulation screening tests / haemostasis in vitro [1]: did not significantly influence haemostasis in vitro; also recorded: did not detect any clinically significant effects; also recorded: no clinically significant effects; colony formation by SW480 cells (SW480 cells): did not inhibit colony formation; tube formation of mouse endothelial cells [2, 11]: efficiently blocked tube formation; IC50 [2]: 16.6 nM; concentrations effective at inhibiting invasion in vitro (LNCaP) (LNCaP cells): effective at nanomolar and sub-nanomolar concentrations; in vitro invasiveness of tumor cells (LNCaP) (LNCaP cells): decreased in vitro invasiveness of tumor cells; also recorded: decreases the in vitro invasiveness of tumor cells; potency in invasion assay compared with aprotinin (LNCaP) (LNCaP cells): more potent inhibitor than aprotinin; inhibition of DHT-stimulated invasion of LNCaPs through Matrigel (LNCaP cells; DX-1000 1 nM): inhibited; effect on Clauss fibrinogen assays (Clauss fibrinogen assay): did not observe an effect; inhibition of plasmin-mediated pro-MMP-9 activation [3]: 64%; MMP (gelatinase) expression and activation ([3]; qualitative): inhibited plasmin-mediated MMP activation; also recorded: down-regulates MMP expression and activation; also recorded: down-regulated efficiently the expression and activation of gelatinases; two-dimensional migration of HT-1080 cells in vitro (HT-1080 cells [4]): did not inhibit migration; also recorded: does not inhibit; reduction in plasmin-activated MMP-9 activity [5]: 68-70%; Ki (human plasmin): 0.088 nM; half-life [6]: 0.45 h; half-life [7]: about 1 h; effects in platelet function screening test (platelet function): no clinically significant effects; concentration at which inhibition of clot lysis was observed (clot lysis): > 700 nM; tube formation of human endothelial cells (HUVECs; [11]): efficiently blocked tube formation; IC50 (HUVECs; listed as DX-1000 (unmodified)): 1.39 nM; efficiency at inhibiting tube formation compared with aprotinin (endothelial cells): at least as efficient as aprotinin; inhibition of tubulogenesis / angiogenesis in vitro (endothelial cells): decreased in vitro angiogenesis; also recorded: potent inhibitor of tubulogenesis in vitro; fibrinolysis in thrombelastography (TEG) (fibrinolysis; two subjects with upper normal values): inhibition of fibrinolysis; fibrinolysis in TEG with tPA (fibrinolysis; tPA): reduction in fibrinolysis; induction of apoptosis in HL-60 cells (HL-60 cells): do not induce apoptosis; effect on prothrombin time (PT) (prothrombin time (PT)): did not observe an effect; induction of apoptosis in SW-480 cells (SW-480 cells): do not induce apoptosis; APTT clotting times versus normal range ([8]; 1.4-5.6 μM): remained within the normal range; effect on activated partial thromboplastin time (APTT) ([8]; higher doses (1.4-5.6 μM)): weak dose-dependent effect; concentrations effective at inhibiting invasion in vitro (HT-1080) (HT-1080 cells [9]): effective at nanomolar and sub-nanomolar concentrations; in vitro invasiveness of tumor cells (HT-1080) (HT-1080 cells [9]): decreased in vitro invasiveness of tumor cells; also recorded: decreases the in vitro invasiveness of tumor cells; potency in invasion assay compared with aprotinin (HT-1080) (HT-1080 cells [9]): more potent inhibitor than aprotinin; inhibition of invasion of HT-1080 through Matrigel (HT-1080 cells [9]; DX-1000 1 nM): inhibited

Question: Which results are given for “4-PEG DX-1000: exemplary modified DX-1000 molecule that includes four PEG moieties (MHSFCAFKAETGPCRARFDRWFFNIFTRQCEEFIYGGCEGNQNRFESLEECKKMCTRD; cysteine pairing not given here; also: four PEG moieties, places not given here)”?
Answer: colony formation by SW480 cells (SW480 cells): did not inhibit colony formation; IC50 [2]: 15.8 nM; expected stability in humans [10]: 9 days; inhibition of plasmin-mediated pro-MMP-9 activation [3]: 92%; reduction in plasmin-activated MMP-9 activity [5]: 68-70%; half-life [6]: 13 h; half-life [7]: 59 h; IC50 (HUVECs): 8.3 nM; inhibition of tubulogenesis / angiogenesis in vitro (endothelial cells): also inhibited tube formation; IC50 (endothelial cells; read-out: IC50 tube formation, cell type not given): 0.98 ± 1.25 nM; induction of apoptosis in HL-60 cells (HL-60 cells): do not induce apoptosis; induction of apoptosis in SW-480 cells (SW-480 cells): do not induce apoptosis
